Data published in ChEMBL document CHEMBL1132734, “2-Nitro analogues of adenosine and 1-deazaadenosine: synthesis and binding studies at the adenosine A1, A2A and A3 receptor subtypes” (Bioorg Med Chem Lett, 2000).

How the values were obtained:
Adenosine receptor A2a = Adenosine receptor A2a (Rattus norvegicus, UniProt P30543); assay: Binding affinity for adenosine A2A receptor of rat striatal membrane by displacing [3H]-ZM 241385; parameters: species or system Striatum
Adenosine receptor A1 = target: T1, Adenosine receptor A1 (Rattus norvegicus, UniProt P25099); assay: Binding affinity for Adenosine A1 receptor of rat cortical membrane by displacing [3H]DPCPX
T1 sequence (P25099 whole entry): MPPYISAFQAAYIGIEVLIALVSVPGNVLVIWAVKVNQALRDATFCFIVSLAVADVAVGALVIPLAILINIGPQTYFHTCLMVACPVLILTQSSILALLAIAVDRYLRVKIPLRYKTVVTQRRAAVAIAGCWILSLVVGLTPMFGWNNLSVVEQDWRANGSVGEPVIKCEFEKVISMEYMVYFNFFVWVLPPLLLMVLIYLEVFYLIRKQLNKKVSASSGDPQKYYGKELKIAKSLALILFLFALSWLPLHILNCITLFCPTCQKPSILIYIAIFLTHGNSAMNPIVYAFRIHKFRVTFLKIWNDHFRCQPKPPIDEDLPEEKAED

Adenosine receptor A3 = target: T2, Adenosine receptor A3 (Homo sapiens, UniProt P0DMS8); assay: Binding affinity for Adenosine A3 receptor expressed in HEK 293 cells by displacing i[125I]-ABMECA; type: cell-based, HEK293
T2 sequence (P0DMS8 whole entry): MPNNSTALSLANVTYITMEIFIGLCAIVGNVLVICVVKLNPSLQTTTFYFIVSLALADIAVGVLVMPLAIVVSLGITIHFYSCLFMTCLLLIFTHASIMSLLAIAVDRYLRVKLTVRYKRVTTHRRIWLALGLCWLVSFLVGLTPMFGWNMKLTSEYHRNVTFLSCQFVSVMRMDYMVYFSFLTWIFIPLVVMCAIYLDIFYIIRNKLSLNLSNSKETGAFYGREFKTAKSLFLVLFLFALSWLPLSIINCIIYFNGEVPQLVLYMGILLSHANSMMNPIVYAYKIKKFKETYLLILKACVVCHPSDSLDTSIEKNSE

[1] = target: Adenosine receptor A2a (Rattus norvegicus) (UniProt P30543); assay: Binding affinity for adenosine A2A receptor of rat striatal membrane by displacing [3H]ZM-241385
Sequence of Adenosine receptor A2a (Rattus norvegicus) (P30543 whole entry): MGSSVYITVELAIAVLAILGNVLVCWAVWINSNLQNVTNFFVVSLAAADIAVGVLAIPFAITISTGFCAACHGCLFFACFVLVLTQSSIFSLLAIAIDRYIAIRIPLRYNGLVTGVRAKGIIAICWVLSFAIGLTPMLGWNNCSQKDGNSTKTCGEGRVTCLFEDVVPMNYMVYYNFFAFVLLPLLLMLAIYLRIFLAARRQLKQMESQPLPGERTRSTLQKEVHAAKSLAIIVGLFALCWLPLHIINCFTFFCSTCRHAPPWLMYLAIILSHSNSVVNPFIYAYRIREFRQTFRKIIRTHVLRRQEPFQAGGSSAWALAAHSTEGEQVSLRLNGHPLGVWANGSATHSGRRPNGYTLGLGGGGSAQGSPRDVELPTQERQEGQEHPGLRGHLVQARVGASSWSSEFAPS

Sequence of Adenosine receptor A2a (P30543 whole entry): as above

Row | Ki (Adenosine receptor A2a) [nM] | Ki (Adenosine receptor A1) [nM] | Ki (Adenosine receptor A3) [nM] | Displacement [1] [%] | Compound
1 | 437 | 646 | 216 |  | Nc1cc([N+](=O)[O-])nc2c1ncn2[C@@H]1O[C@H](CO)[C@@H](O)[C@H]1O
2 | 3510 | 47.1 | 222 |  | O=[N+]([O-])c1nc(NC2CCCC2)c2ncn([C@@H]3O[C@H](CO)[C@@H](O)[C@H]3O)c2n1
3 |  | 52.6 | 340 | 52 | O=[N+]([O-])c1cc(NC2CCCC2)c2ncn([C@@H]3O[C@H](CO)[C@@H](O)[C@H]3O)c2n1
4 |  |  | 163 | 20 | O=[N+]([O-])c1nc(NCc2ccccc2)c2ncn([C@@H]3O[C@H](CO)[C@@H](O)[C@H]3O)c2n1
5 | 286 | 344 | 202 |  | Nc1nc([N+](=O)[O-])nc2c1ncn2[C@@H]1O[C@H](CO)[C@@H](O)[C@H]1O
6 | 208 | 110 | 9.8 |  | O=[N+]([O-])c1cc(NCc2cccc(I)c2)c2ncn([C@@H]3O[C@H](CO)[C@@H](O)[C@H]3O)c2n1
7 | 1440 | 138 | 12 |  | O=[N+]([O-])c1nc(NCc2cccc(I)c2)c2ncn([C@@H]3O[C@H](CO)[C@@H](O)[C@H]3O)c2n1
8 |  | 1160 | 35.8 | 9 | CONc1nc([N+](=O)[O-])nc2c1ncn2[C@@H]1O[C@H](CO)[C@@H](O)[C@H]1O
